Here are results for 1 compound from patent publication US20250115926A1, “DEREGULATED DHS AND TYRA ENZYMES OF GRASSES ENABLE EFFICIENT PRODUCTION OF BOTH TYROSINE AND PHENYLALANINE” (Wisconsin Alumni Research Foundation, priority 2023, published 2025).

Assay in all cases: TyrA arogenate dehydrogenase kinetics and tyrosine inhibition (340 nm)
Holding throughout (type): biochemical

Test [1] addresses T1, Brachypodium distachyon BdTyrA2, SEQ ID NO: 35, recombinant (Brachypodium distachyon, UniProt I1GWX1).
T1 sequence (I1GWX1 55-365): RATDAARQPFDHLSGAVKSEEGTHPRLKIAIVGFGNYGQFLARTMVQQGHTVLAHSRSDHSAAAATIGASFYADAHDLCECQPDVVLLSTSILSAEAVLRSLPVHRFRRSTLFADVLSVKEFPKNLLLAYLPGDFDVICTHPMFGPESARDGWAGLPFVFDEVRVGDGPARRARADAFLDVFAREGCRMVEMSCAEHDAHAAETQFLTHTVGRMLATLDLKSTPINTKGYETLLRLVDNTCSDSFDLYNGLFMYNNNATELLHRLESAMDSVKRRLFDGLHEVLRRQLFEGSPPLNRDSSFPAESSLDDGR
The text has this:
(§1) Next, to study the biochemical properties of grass TyrA enzymes, we generated and characterized recombinant purified TyrA proteins from Brachypodium (BdTyrA) and Sorghum (SbTyrA), two distantly related grass species^43, 44. Whereas TyrA enzymes from dicot plants are generally NADP^+-dependent arogenate dehydrogenases^20, 39, 45, except for NADP^+-prephenate dehydrogenases in the legume family^40, 46, previous reports on the substrate preference of grass TyrA enzymes are inconclusive^17, 19. […] NAD^+-prephenate dehydrogenase activity was absent in all cases, ruling out a significant contamination of the enzyme preparations with the TyrA enzyme from E. coli^47.48.

Test [2] addresses T2, Brachypodium distachyon BdTyrAnc (non-canonical TyrA), SEQ ID NO: 37, recombinant (Brachypodium distachyon, UniProt I1GYB3).
T2 construct: from cDNA
T2 sequence (I1GYB3 58-361): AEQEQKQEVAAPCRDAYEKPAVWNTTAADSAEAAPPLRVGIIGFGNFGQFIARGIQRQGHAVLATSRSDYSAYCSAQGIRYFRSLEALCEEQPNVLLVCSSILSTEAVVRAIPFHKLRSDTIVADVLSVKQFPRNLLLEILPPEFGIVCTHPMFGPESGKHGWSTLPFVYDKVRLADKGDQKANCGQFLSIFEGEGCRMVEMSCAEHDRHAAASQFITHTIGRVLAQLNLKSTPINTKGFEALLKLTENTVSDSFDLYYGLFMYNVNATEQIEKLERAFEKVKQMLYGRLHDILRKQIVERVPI
Source text: as §1

For test [3], the target named is T3, Sorghum bicolor SbTyrA2, SEQ ID NO: 41, recombinant (Sorghum bicolor, UniProt C5Z9D2).
T3 construct: from genomic DNA
T3 sequence (C5Z9D2 53-389): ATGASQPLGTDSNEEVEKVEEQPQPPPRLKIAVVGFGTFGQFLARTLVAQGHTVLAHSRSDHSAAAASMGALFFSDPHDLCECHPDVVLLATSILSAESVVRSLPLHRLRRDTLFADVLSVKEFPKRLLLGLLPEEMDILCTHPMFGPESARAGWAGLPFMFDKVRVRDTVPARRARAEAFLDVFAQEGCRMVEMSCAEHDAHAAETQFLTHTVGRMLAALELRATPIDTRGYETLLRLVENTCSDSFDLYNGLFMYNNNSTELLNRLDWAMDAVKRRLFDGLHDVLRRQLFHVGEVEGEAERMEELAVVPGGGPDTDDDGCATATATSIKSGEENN
Source text: as §1

Setting [4] is: IC50 (tyrosine), 0.5 mM arogenate, 1 mM NADP^+.
Setting [5] is: calculated from Km and IC50, competitive inhibition model.

Values joined by “and” are separate entries in the source; they are usually repeats but may differ in a detail not shown here. Identical values can stand only once.

For the compound `N[C@@H](Cc1ccc(O)cc1)C(=O)O` [tyrosine], in test [1] (200 μM tyrosine), the “activity at 200 μM of tyrosine” value is “fully inactive”. Also, the IC50 was ~20 µM and 20 µM in test [1] (setting [4]); 242 ± 45 µM in test [2] (setting [4]); 47 ± 23 µM in test [3]. Besides, the Ki in test [1] (setting [5]) is 8 ± 2 µM; in test [2] (setting [5]) it was 64 ± 25 µM; in test [3], 36 ± 13 µM. The activity at 200 µM in test [2] (read-out: activity retained at 200 μM of tyrosine) was more than 50%. Besides, the “mode of inhibition by tyrosine” value in test [2] (with respect to arogenate) is “competitive with arogenate”.

By IC50 is commonly meant the concentration needed to halve the response being measured. As a reminder, the Ki is a measure of affinity in units of concentration, obtained from inhibition or displacement.
